Measurements published in ChEMBL document CHEMBL1152361, “The application of phosphoramidate ProTide technology to the potent anti-HCV compound 4'-azidocytidine (R1479)” (Bioorg Med Chem Lett, 2009).

Tests used:
Hepatitis C virus [1] = experiment: Antiviral activity against HCV Con1 GT1b by replicon assay; format: functional, organism-based, Hepacivirus hominis
Hepatitis C virus [2] = experiment: Antiviral activity against HCV Con1 GT1b at 100 uM by replicon assay; format: functional, Hepacivirus hominis

Compound	EC50 (Hepatitis C virus [1]; Hepatitis C virus, Con1 GT1b)	further results
CC(C)(C)OC(=O)[C@H](Cc1ccccc1)NP(=O)(OC[C@@]1(N=[N+]=[N-])O[C@@H](n2ccc(N)nc2=O)[C@H](O)[C@@H]1O)Oc1ccccc1 (stereo partly drawn)	–	IC50 (Hepatitis C virus [1]; Hepatitis C virus, Con1 GT1b): 6.7 µM; inhibition at 100 µM (Hepatitis C virus [2]): 84%
C[C@H](NP(=O)(OC[C@@]1(N=[N+]=[N-])O[C@@H](n2ccc(N)nc2=O)[C@H](O)[C@@H]1O)Oc1cccc2ccccc12)C(=O)OCc1ccccc1 (stereo partly drawn)	–	EC50 (Hepatitis C virus [1]): 0.95 µM
CC(C)(NP(=O)(OC[C@@]1(N=[N+]=[N-])O[C@@H](n2ccc(N)nc2=O)[C@H](O)[C@@H]1O)Oc1ccccc1)C(=O)OCc1ccccc1 (stereo partly drawn)	9.2 µM	–
[N-]=[N+]=N[C@]1(COP(=O)(NCC(=O)OCc2ccccc2)Oc2ccccc2)O[C@@H](n2ccc(N)nc2=O)[C@H](O)[C@@H]1O (stereo partly drawn)	2.1 µM	–
Cc1ccccc1OP(=O)(N[C@@H](C)C(=O)OCc1ccccc1)OC[C@@]1(N=[N+]=[N-])O[C@@H](n2ccc(N)nc2=O)[C@H](O)[C@@H]1O (stereo partly drawn)	1.3 µM	–
C[C@@H](NP(=O)(OC[C@@]1(N=[N+]=[N-])O[C@@H](n2ccc(N)nc2=O)[C@H](O)[C@@H]1O)Oc1ccccc1)C(=O)OCc1ccccc1 (stereo partly drawn)	2.2 µM	–
CC(C)C[C@H](NP(=O)(OC[C@@]1(N=[N+]=[N-])O[C@@H](n2ccc(N)nc2=O)[C@H](O)[C@@H]1O)Oc1ccccc1)C(=O)OC(C)C (stereo partly drawn)	> 100 µM	–
C[C@H](NP(=O)(OC[C@@]1(N=[N+]=[N-])O[C@@H](n2ccc(N)nc2=O)[C@H](O)[C@@H]1O)Oc1ccccc1)C(=O)Oc1ccccc1 (stereo partly drawn)	2.9 µM	–
COc1ccccc1OP(=O)(N[C@@H](C)C(=O)OCc1ccccc1)OC[C@@]1(N=[N+]=[N-])O[C@@H](n2ccc(N)nc2=O)[C@H](O)[C@@H]1O (stereo partly drawn)	2.3 µM	–
CCOC(=O)CN(C)P(=O)(OC[C@@]1(N=[N+]=[N-])O[C@@H](n2ccc(N)nc2=O)[C@H](O)[C@@H]1O)Oc1ccccc1 (stereo partly drawn)	–	IC50 (Hepatitis C virus [1]; Hepatitis C virus, Con1 GT1b): 48 µM; inhibition at 100 µM (Hepatitis C virus [2]): 72%
CCOC(=O)[C@H](C)NP(=O)(OC[C@@]1(N=[N+]=[N-])O[C@@H](n2ccc(N)nc2=O)[C@H](O)[C@@H]1O)Oc1ccc(C)cc1 (stereo partly drawn)	2.9 µM	–
CCOC(=O)[C@@H](NP(=O)(OC[C@@]1(N=[N+]=[N-])O[C@@H](n2ccc(N)nc2=O)[C@H](O)[C@@H]1O)Oc1ccccc1)[C@@H](C)CC (stereo partly drawn)	> 100 µM	–
CCOC(=O)[C@H](C)NP(=O)(OC[C@@]1(N=[N+]=[N-])O[C@@H](n2ccc(N)nc2=O)[C@H](O)[C@@H]1O)Oc1ccccc1 (stereo partly drawn)	0.38 µM	–
CCOC(=O)[C@H](Cc1ccccc1)NP(=O)(OC[C@@]1(N=[N+]=[N-])O[C@@H](n2ccc(N)nc2=O)[C@H](O)[C@@H]1O)Oc1ccccc1 (stereo partly drawn)	11 µM	–
CCOC(=O)[C@H](CC(C)C)NP(=O)(OC[C@@]1(N=[N+]=[N-])O[C@@H](n2ccc(N)nc2=O)[C@H](O)[C@@H]1O)Oc1ccc(C)cc1 (stereo partly drawn)	4.3 µM	–
CCOC(=O)CC[C@H](NP(=O)(OC[C@@]1(N=[N+]=[N-])O[C@@H](n2ccc(N)nc2=O)[C@H](O)[C@@H]1O)Oc1ccccc1)C(=O)OCC (stereo partly drawn)	–	IC50 (Hepatitis C virus [1]; Hepatitis C virus, Con1 GT1b): 44 µM; inhibition at 100 µM (Hepatitis C virus [2]): 74%
C[C@H](NP(=O)(OC[C@@]1(N=[N+]=[N-])O[C@@H](n2ccc(N)nc2=O)[C@H](O)[C@@H]1O)Oc1cccc(Cl)c1)C(=O)OCc1ccccc1 (stereo partly drawn)	3.7 µM	–
COc1ccc(OP(=O)(N[C@@H](C)C(=O)OCc2ccccc2)OC[C@@]2(N=[N+]=[N-])O[C@@H](n3ccc(N)nc3=O)[C@H](O)[C@@H]2O)cc1 (stereo partly drawn)	> 100 µM	–
C[C@H](NP(=O)(OC[C@@]1(N=[N+]=[N-])O[C@@H](n2ccc(N)nc2=O)[C@H](O)[C@@H]1O)Oc1ccc(Cl)c(Cl)c1)C(=O)OCc1ccccc1 (stereo partly drawn)	9.2 µM	–
CCOC(=O)[C@H](C)NP(=O)(OC[C@@]1(N=[N+]=[N-])O[C@@H](n2ccc(N)nc2=O)[C@H](O)[C@@H]1O)Oc1c(OC)cccc1OC (stereo partly drawn)	4.1 µM	–
C[C@H](NP(=O)(OC[C@@]1(N=[N+]=[N-])O[C@@H](n2ccc(N)nc2=O)[C@H](O)[C@@H]1O)Oc1ccc(Cl)cc1)C(=O)OCc1ccccc1 (stereo partly drawn)	6.2 µM	–
[N-]=[N+]=N[C@]1(COP(=O)(N[C@@H](Cc2ccccc2)C(=O)OCc2ccccc2)Oc2ccccc2)O[C@@H](n2ccc(N)nc2=O)[C@H](O)[C@@H]1O (stereo partly drawn)	–	IC50 (Hepatitis C virus [1]; Hepatitis C virus, Con1 GT1b): 7.7 µM; inhibition at 100 µM (Hepatitis C virus [2]): 89%
CC(C)OC(=O)C(C)(C)NP(=O)(OC[C@@]1(N=[N+]=[N-])O[C@@H](n2ccc(N)nc2=O)[C@H](O)[C@@H]1O)Oc1ccccc1 (stereo partly drawn)	3.1 µM	–
CC(C)OC(=O)[C@H](Cc1ccccc1)NP(=O)(OC[C@@]1(N=[N+]=[N-])O[C@@H](n2ccc(N)nc2=O)[C@H](O)[C@@H]1O)Oc1ccccc1 (stereo partly drawn)	2.9 µM	–
COc1cccc(OP(=O)(N[C@@H](C)C(=O)OCc2ccccc2)OC[C@@]2(N=[N+]=[N-])O[C@@H](n3ccc(N)nc3=O)[C@H](O)[C@@H]2O)c1 (stereo partly drawn)	8.8 µM	–
CCOC(=O)[C@H](CC(C)C)NP(=O)(OC[C@@]1(N=[N+]=[N-])O[C@@H](n2ccc(N)nc2=O)[C@H](O)[C@@H]1O)Oc1ccc(Cl)cc1 (stereo partly drawn)	2.5 µM	–
CCCCOC(=O)[C@H](C)NP(=O)(OC[C@@]1(N=[N+]=[N-])O[C@@H](n2ccc(N)nc2=O)[C@H](O)[C@@H]1O)Oc1ccccc1 (stereo partly drawn)	11 µM	–
CC(C)C[C@@H](NP(=O)(OC[C@@]1(N=[N+]=[N-])O[C@@H](n2ccc(N)nc2=O)[C@H](O)[C@@H]1O)Oc1ccccc1)C(=O)OCc1ccccc1 (stereo partly drawn)	–	IC50 (Hepatitis C virus [1]; Hepatitis C virus, Con1 GT1b): 4.2 µM; inhibition at 100 µM (Hepatitis C virus [2]): 88%

Compound	EC50 (Hepatitis C virus [1]; Hepatitis C virus, Con1 GT1b)	further results
C[C@H](NP(=O)(OC[C@@]1(N=[N+]=[N-])O[C@@H](n2ccc(N)nc2=O)[C@H](O)[C@@H]1O)Oc1ccccc1Cl)C(=O)OCc1ccccc1 (stereo partly drawn)	3.5 µM	–
COC(=O)[C@H](C)NP(=O)(OC[C@@]1(N=[N+]=[N-])O[C@@H](n2ccc(N)nc2=O)[C@H](O)[C@@H]1O)Oc1ccccc1 (stereo partly drawn)	3.1 µM	–
C[C@H](NP(=O)(OC[C@@]1(N=[N+]=[N-])O[C@@H](n2ccc(N)nc2=O)[C@H](O)[C@@H]1O)Oc1ccccc1)C(=O)OCc1ccccc1 (stereo partly drawn)	6 µM	–
CCOC(=O)C[C@H](NP(=O)(OC[C@@]1(N=[N+]=[N-])O[C@@H](n2ccc(N)nc2=O)[C@H](O)[C@@H]1O)Oc1ccccc1)C(=O)OCC (stereo partly drawn)	–	IC50 (Hepatitis C virus [1]; Hepatitis C virus, Con1 GT1b): 4.4 µM; inhibition at 100 µM (Hepatitis C virus [2]): 88%
CCOC(=O)[C@H](CC(C)C)NP(=O)(OC[C@@]1(N=[N+]=[N-])O[C@@H](n2ccc(N)nc2=O)[C@H](O)[C@@H]1O)Oc1ccc(Cl)c(Cl)c1 (stereo partly drawn)	2.3 µM	–
CCOC(=O)[C@H](CC(C)C)NP(=O)(OC[C@@]1(N=[N+]=[N-])O[C@@H](n2ccc(N)nc2=O)[C@H](O)[C@@H]1O)Oc1ccccc1 (stereo partly drawn)	11 µM	–
CCOC(=O)C1(NP(=O)(OC[C@@]2(N=[N+]=[N-])O[C@@H](n3ccc(N)nc3=O)[C@H](O)[C@@H]2O)Oc2ccccc2)CCCC1 (stereo partly drawn)	–	IC50 (Hepatitis C virus [1]; Hepatitis C virus, Con1 GT1b): 56 µM; inhibition at 100 µM (Hepatitis C virus [2]): 69%
CCCCOC(=O)[C@@H](C)NP(=O)(OC[C@@]1(N=[N+]=[N-])O[C@@H](n2ccc(N)nc2=O)[C@H](O)[C@@H]1O)Oc1ccccc1 (stereo partly drawn)	0.94 µM	–
C[C@H](NP(=O)(OC[C@@]1(N=[N+]=[N-])O[C@@H](n2ccc(N)nc2=O)[C@H](O)[C@@H]1O)Oc1ccccc1)C(=O)OC(C)(C)C (stereo partly drawn)	0.72 µM	–
CCC(C)OC(=O)[C@H](C)NP(=O)(OC[C@@]1(N=[N+]=[N-])O[C@@H](n2ccc(N)nc2=O)[C@H](O)[C@@H]1O)Oc1ccccc1 (stereo partly drawn)	0.62 µM	–
CCOC(=O)[C@@H]1CCCN1P(=O)(OC[C@@]1(N=[N+]=[N-])O[C@@H](n2ccc(N)nc2=O)[C@H](O)[C@@H]1O)Oc1ccccc1 (stereo partly drawn)	> 100 µM	–
CCOC(=O)CCNP(=O)(OC[C@@]1(N=[N+]=[N-])O[C@@H](n2ccc(N)nc2=O)[C@H](O)[C@@H]1O)Oc1ccccc1 (stereo partly drawn)	–	IC50 (Hepatitis C virus [1]; Hepatitis C virus, Con1 GT1b): 47 µM; inhibition at 100 µM (Hepatitis C virus [2]): 77%
Cc1ccc(OP(=O)(N[C@@H](C)C(=O)OCc2ccccc2)OC[C@@]2(N=[N+]=[N-])O[C@@H](n3ccc(N)nc3=O)[C@H](O)[C@@H]2O)cc1 (stereo partly drawn)	0.51 µM	–
CC(C)OC(=O)CNP(=O)(OC[C@@]1(N=[N+]=[N-])O[C@@H](n2ccc(N)nc2=O)[C@H](O)[C@@H]1O)Oc1ccccc1 (stereo partly drawn)	–	EC50 (Hepatitis C virus [1]): 4.5 µM
CCCCCCCCCCCCOC(=O)[C@@H](C)NP(=O)(OC[C@@]1(N=[N+]=[N-])O[C@@H](n2ccc(N)nc2=O)[C@H](O)[C@@H]1O)Oc1ccccc1 (stereo partly drawn)	30 µM	–
C[C@H](NP(=O)(OC[C@@]1(N=[N+]=[N-])O[C@@H](n2ccc(N)nc2=O)[C@H](O)[C@@H]1O)Oc1ccc(Br)cc1)C(=O)OCc1ccccc1 (stereo partly drawn)	6.5 µM	–
CCOC(=O)[C@H](CC(C)C)NP(=O)(OC[C@@]1(N=[N+]=[N-])O[C@@H](n2ccc(N)nc2=O)[C@H](O)[C@@H]1O)Oc1ccc(OC)cc1 (stereo partly drawn)	9.3 µM	–
CC(C)[C@H](NP(=O)(OC[C@@]1(N=[N+]=[N-])O[C@@H](n2ccc(N)nc2=O)[C@H](O)[C@@H]1O)Oc1ccccc1)C(=O)OCc1ccccc1 (stereo partly drawn)	5.6 µM	–
CCOC(=O)[C@H](CCSC)NP(=O)(OC[C@@]1(N=[N+]=[N-])O[C@@H](n2ccc(N)nc2=O)[C@H](O)[C@@H]1O)Oc1ccccc1 (stereo partly drawn)	18 µM	–
CCOC(=O)[C@@H](C)NP(=O)(OC[C@@]1(N=[N+]=[N-])O[C@@H](n2ccc(N)nc2=O)[C@H](O)[C@@H]1O)Oc1ccccc1 (stereo partly drawn)	2.3 µM	–
CC(C)OC(=O)[C@H](C)NP(=O)(OC[C@@]1(N=[N+]=[N-])O[C@@H](n2ccc(N)nc2=O)[C@H](O)[C@@H]1O)Oc1ccccc1 (stereo partly drawn)	0.99 µM	–
C[C@@H](NP(=O)(OC[C@@]1(N=[N+]=[N-])O[C@@H](n2ccc(N)nc2=O)[C@H](O)[C@@H]1O)Oc1ccccc1)C(=O)OC(C)(C)C (stereo partly drawn)	> 100 µM	–
CC(C)OC(=O)CNP(=O)(OC[C@@]1(N=[N+]=[N-])O[C@@H](n2ccc(N)nc2=O)[C@H](O)[C@@H]1O)Oc1ccccc1 (single isomer, unassigned; Diastereomer 1)	–	EC50 (Hepatitis C virus [1]): 15 µM
C[C@H](NP(=O)(OC[C@@]1(N=[N+]=[N-])O[C@@H](n2ccc(N)nc2=O)[C@H](O)[C@@H]1O)Oc1ccc2ccccc2c1)C(=O)OCc1ccccc1 (single isomer, unassigned; diastereomer 1)	–	EC50 (Hepatitis C virus [1]): 4.3 µM
C[C@H](NP(=O)(OC[C@@]1(N=[N+]=[N-])O[C@@H](n2ccc(N)nc2=O)[C@H](O)[C@@H]1O)Oc1cccc2ccccc12)C(=O)OCc1ccccc1 (single isomer, unassigned; diastereomer 2)	1.2 µM	–
C[C@H](NP(=O)(OC[C@@]1(N=[N+]=[N-])O[C@@H](n2ccc(N)nc2=O)[C@H](O)[C@@H]1O)Oc1ccc2ccccc2c1)C(=O)OCc1ccccc1 (single isomer, unassigned; diastereomer 2)	2.9 µM	–
[N-]=[N+]=N[C@]1(CO)O[C@@H](n2ccc(N)nc2=O)[C@H](O)[C@@H]1O [4'-AZIDOCYTIDINE]	1.28 µM	–
